The text below walks through data of ChEMBL document CHEMBL5385925, “Phytochemical Characterization and TRPA1/TRPM8 Modulation Profile of the Cannabigerol-Rich Cannabis sativa L. Chemotype IV” (J Nat Prod, 2024).

For orientation: EC50 means the concentration needed to bring the measured effect to its halfway point. Usually IC50 stands for the concentration that inhibits the measured activity by half.

Activity calls are given as the source filed them. The calls are words filed in the database; no cut-off is given here. Where only a bound is given, the exact number is not on record here.

Common to all, as to assay type: cell-based
Experiment [1] deals with T1, Transient receptor potential cation channel subfamily A member 1 (Rattus norvegicus, UniProt Q6RI86). As to the kind of experiment: Agonist activity at rat TRPA1 transfected in HEK293 cells assessed as increase in intracellular Ca2+ concentration by Fluo4-AM dye based assay.
For experiment [2], the target named is Transient receptor potential cation channel subfamily M member 8 (Rattus norvegicus, UniProt Q8R455). Description: Antagonist activity at rat TRPM8 transfected in HEK293 cells assessed as inhibition of icilin induced increase in intracellular Ca2+ concentration preincubated for 5 mins followed by icilin stimulation by Fluo4-AM dye based assay.
The target of experiment [3] is Transient receptor potential cation channel subfamily A member 1 (Rattus norvegicus) (UniProt Q6RI86). As to the kind of experiment: Agonist activity at rat TRPA1 transfected in HEK293 cells assessed as increase in intracellular Ca2+ concentration by measuring efficacy by Fluo4-AM dye based assay relative to AITC.
Experiment [4] has as its target T1, Transient receptor potential cation channel subfamily A member 1. Description: Antagonist activity at rat TRPA1 transfected in HEK293 cells assessed as desensitization by measuring inhibition of AITC induced increase in intracellular Ca2+ concentration preincubated for 5 mins followed by AITC stimulation by Fluo4-AM dye based assay.
Experiment [5] deals with Transient receptor potential cation channel subfamily V member 1 (Homo sapiens) (UniProt Q8NER1). As to the kind of experiment: Modulation of human TRPV1 transfected in HEK293 cells.
Chain of Transient receptor potential cation channel subfamily V member 1 (Homo sapiens) (Q8NER1 whole entry): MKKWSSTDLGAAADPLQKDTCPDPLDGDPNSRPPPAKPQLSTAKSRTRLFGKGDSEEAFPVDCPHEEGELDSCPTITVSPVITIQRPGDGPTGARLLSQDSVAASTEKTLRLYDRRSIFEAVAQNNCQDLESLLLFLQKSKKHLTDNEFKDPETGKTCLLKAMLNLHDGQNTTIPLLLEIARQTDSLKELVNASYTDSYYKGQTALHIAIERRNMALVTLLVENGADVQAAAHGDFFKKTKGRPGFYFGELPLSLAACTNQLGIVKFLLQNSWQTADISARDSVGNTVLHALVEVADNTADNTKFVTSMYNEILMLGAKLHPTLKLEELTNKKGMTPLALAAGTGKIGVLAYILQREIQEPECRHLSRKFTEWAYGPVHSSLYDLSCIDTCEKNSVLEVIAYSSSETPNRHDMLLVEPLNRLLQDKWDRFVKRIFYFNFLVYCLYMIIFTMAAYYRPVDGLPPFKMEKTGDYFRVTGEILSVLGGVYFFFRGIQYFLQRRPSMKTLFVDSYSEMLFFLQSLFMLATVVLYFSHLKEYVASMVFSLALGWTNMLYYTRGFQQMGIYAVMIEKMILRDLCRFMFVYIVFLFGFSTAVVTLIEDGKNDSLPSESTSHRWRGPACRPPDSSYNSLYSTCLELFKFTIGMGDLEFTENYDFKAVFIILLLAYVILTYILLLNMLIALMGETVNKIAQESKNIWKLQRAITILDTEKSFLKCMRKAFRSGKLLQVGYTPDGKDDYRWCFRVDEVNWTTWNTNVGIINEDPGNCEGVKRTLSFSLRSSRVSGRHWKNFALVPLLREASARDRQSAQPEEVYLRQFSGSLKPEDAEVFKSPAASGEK

Chain of Transient receptor potential cation channel subfamily M member 8 (Q8R455 whole entry): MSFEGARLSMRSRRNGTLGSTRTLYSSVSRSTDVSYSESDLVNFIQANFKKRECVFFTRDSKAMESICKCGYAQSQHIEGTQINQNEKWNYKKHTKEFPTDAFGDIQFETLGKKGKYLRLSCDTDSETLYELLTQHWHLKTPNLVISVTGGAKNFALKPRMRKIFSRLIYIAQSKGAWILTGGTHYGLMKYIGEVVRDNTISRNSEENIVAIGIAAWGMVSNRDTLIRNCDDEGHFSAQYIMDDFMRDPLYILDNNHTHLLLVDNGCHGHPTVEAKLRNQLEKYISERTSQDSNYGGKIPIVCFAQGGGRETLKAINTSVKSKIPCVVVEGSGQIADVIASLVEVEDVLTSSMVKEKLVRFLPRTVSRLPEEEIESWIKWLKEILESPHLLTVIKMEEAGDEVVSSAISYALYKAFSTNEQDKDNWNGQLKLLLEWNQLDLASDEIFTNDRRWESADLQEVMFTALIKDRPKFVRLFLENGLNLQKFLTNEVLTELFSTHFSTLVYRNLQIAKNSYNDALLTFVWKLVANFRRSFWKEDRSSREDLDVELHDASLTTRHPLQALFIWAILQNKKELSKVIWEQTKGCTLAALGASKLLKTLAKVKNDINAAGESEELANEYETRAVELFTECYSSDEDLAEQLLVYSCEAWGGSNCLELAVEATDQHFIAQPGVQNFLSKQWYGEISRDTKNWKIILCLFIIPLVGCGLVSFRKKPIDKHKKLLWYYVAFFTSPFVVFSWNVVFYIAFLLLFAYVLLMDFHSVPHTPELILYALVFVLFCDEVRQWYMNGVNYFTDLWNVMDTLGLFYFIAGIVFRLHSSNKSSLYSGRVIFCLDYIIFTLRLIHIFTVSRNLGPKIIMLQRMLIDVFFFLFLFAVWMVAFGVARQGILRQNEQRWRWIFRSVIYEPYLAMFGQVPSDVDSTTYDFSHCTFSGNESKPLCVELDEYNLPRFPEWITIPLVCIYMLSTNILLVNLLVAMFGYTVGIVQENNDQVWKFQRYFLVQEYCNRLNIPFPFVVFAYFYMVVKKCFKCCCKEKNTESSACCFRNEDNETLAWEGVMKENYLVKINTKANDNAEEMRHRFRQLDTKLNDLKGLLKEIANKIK
Chain of Transient receptor potential cation channel subfamily A member 1 (Rattus norvegicus) (Q6RI86 whole entry): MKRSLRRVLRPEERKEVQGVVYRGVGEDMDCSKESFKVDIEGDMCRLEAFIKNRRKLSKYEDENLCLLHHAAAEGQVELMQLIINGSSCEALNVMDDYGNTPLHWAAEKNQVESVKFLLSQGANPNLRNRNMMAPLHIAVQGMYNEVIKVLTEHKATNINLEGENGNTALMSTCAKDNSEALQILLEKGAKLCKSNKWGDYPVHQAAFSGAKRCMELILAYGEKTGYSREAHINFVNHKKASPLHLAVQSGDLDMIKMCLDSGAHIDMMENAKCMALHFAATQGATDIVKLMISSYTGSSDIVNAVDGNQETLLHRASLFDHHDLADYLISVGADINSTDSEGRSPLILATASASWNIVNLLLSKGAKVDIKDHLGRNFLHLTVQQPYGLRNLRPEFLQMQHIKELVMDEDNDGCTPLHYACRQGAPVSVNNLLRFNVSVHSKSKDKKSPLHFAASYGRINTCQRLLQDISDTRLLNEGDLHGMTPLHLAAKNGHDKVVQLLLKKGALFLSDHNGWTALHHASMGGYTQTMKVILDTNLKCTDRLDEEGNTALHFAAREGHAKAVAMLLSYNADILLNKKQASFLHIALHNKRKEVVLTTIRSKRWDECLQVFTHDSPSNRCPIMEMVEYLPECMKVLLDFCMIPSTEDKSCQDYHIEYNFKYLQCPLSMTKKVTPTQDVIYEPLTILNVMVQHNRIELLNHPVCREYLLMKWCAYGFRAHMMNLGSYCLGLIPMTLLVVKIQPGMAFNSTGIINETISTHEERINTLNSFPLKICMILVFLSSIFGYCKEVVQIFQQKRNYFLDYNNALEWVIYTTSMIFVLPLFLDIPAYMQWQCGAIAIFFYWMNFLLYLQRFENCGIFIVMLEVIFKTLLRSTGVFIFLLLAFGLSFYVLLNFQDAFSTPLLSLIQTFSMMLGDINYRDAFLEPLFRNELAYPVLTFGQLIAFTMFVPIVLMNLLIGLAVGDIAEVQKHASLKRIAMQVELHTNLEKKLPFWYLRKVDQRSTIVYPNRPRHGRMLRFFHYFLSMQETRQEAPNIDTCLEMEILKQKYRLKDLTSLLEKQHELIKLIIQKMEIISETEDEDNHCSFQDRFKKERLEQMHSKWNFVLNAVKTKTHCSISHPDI
T1 sequence (Q6RI86 whole entry): as above

Take `C=C(C)C(O)CC/C(C)=C/Cc1c(O)cc(CCCCC)c(C(=O)O)c1O` (stereo not drawn): the EC50 in experiment [1] was found to be 12.1 µM. Further, the IC50 in experiment [2] was found to be 10.4 µM; in experiment [4], 37.3 µM. For the same compound, in experiment [3] (filed as agonist), the Efficacy was 96.1%.

As to `CCCCCc1cc(O)c(C/C=C(\C)CCC(=O)O)c(O)c1C(=O)O`, the EC50 in experiment [1] worked out at 28.3 µM. Also, the IC50 in experiment [2] is 29.5 µM; in experiment [4], greater than 50 µM. Moreover, the Efficacy in experiment [3] (filed as agonist) was determined as 40.4%.

On to `CCCCCc1cc(O)c(C/C=C(\C)CCC(O)C(C)(C)O)c(O)c1C(=O)O` (stereo not drawn), for which the 50% effective concentration (EC50) in experiment [1] was 10.3 µM. The IC50 worked out at 17.3 µM in experiment [2] and 25.1 µM in experiment [4]. Besides, in experiment [3] (filed as agonist), the Efficacy was 84.1%.

As to `C=C(C)[C@@H](O)CC/C(C)=C/Cc1c(O)cc(CCCCC)c(C(=O)O)c1O`, the EC50 in experiment [1] was 15 µM. Besides, the half-maximal inhibitory concentration (IC50) in experiment [2] was 33 µM; in experiment [4], greater than 50 µM. The Efficacy in experiment [3] amounted to 31%.

With `C=C(C)C(O)CC/C(C)=C/Cc1c(O)cc(CCCCC)cc1O` (racemic), in experiment [1], the EC50 was determined as 1 µM. Moreover, the IC50 in experiment [2] is 0.8 µM; in experiment [4], 7.9 µM. Also, the outcome in experiment [5] was inactive. The Efficacy in experiment [3] (filed as agonist) worked out at 75.3%.

In the case of `C=C(C)[C@H](CCC(C)=O)[C@@H]1c2c(cc(CCCCC)c(C(=O)O)c2O)O[C@H]1O`, the EC50 in experiment [1] turned out to be 6.6 µM. Also, the IC50 in experiment [2] is 23.9 µM; in experiment [4] it was 17.9 µM. In experiment [3] (filed as agonist), the Efficacy came out at 91.5%.

As to `CCCCCC1=CC(=O)C(C/C=C(\C)CCC=C(C)C)=C(O)C1=O`, in experiment [1], the EC50 worked out at 7.8 µM. The IC50 was determined as 3 µM in experiment [2] and 8.4 µM in experiment [4]. For the same compound, the outcome in experiment [5] was inactive. The Efficacy in experiment [3] (filed as agonist) was 134%.

For the compound `C=C(C)[C@H](CCC(C)=O)[C@@H]1c2c(cc(CCCCC)c(C(=O)O)c2O)O[C@@H]1O`, the EC50 in experiment [1] came to 8.8 µM. The IC50 in experiment [2] came to 8 µM; in experiment [4] it was 19.2 µM. Moreover, the Efficacy in experiment [3] (filed as agonist) was determined as 85.7%.

For the compound `CCCCCc1cc(O)c(C/C=C(\C)CCC=C(C)C)c(O)c1`, the Efficacy in experiment [3] (filed as agonist) was found to be 99.9%.

Take `CCCCCc1cc(O)c(C/C=C(\C)CCC=C(C)C)c(O)c1C(=O)O` [CANNABIGEROLIC ACID]: the 50% effective concentration (EC50) in experiment [1] was found to be 8.4 µM. The IC50 worked out at 1.31 µM in experiment [2] and 7.14 µM in experiment [4]. The Efficacy in experiment [3] (filed as agonist) is 183%.

Turning to `C=C(C)C(O)CC/C(C)=C\Cc1c(O)cc(CCCCC)c(C(=O)O)c1O` (stereo not drawn), the EC50 in experiment [1] was 6.9 µM. For the same compound, the IC50 in experiment [2] was 4 µM; in experiment [4], 13.9 µM. Moreover, the outcome in experiment [5] was inactive. The Efficacy in experiment [3] (filed as agonist) turned out to be 100%.

On to `C=C(C)[C@H](O)CC/C(C)=C/Cc1c(O)cc(CCCCC)c(C(=O)O)c1O`, for which, in experiment [1], the EC50 amounted to 8.5 µM. Further, the values for the IC50 in experiment [2] and in experiment [4] were 5.2 µM and greater than 50 µM, respectively. Further, the Efficacy in experiment [3] (filed as agonist) is 68.5%.
